Experimental data reported in US12351556B2, “Pyridin-2(1H)one derivatives, their preparation and their use for the treatment of pain” (INSTITUT NATIONAL DE LA SANTE ET DE LA RECHERCHE MEDICALE …, priority 2019, dated 2025).

Legend:
Assay in all cases: ICKP protein kinase panel screening
ERK8 = ERK8 (Homo sapiens (Human), UniProt Q8TD08); type: biochemical; settings: duplicate assays, read-out: mean % residual activity
Method: (§1) FIG. 4 illustrates the studies carried out for compounds 67 and 69. Compounds 67 and 69 (FIG. 4B) were evaluated at the International Center For Kinase Profiling (ICKP, Dundee, Scotland) toward a panel of 13 protein kinases. The results (FIG. 4A) were expressed as the mean percentage of residual activity at 1 μM concentration (duplicate assays). Small disks: ≥90%, larger disk: 59%, for both compounds. The tree was generated using the Kinome Render software, and the illustration reproduced courtesy of Cell Signaling Technology, Inc. (www.cellsignal.com) Chartier et al PeerJ 2013, 1:e126.
(§2) Results are expressed as the mean percentage of residual activity at 10 μM (Table 3) or 1 μM (Table 4). They are illustrated on FIGS. 3 and 4.
(§3) The selectivity of compound 69 was evaluated at 1 μM toward another panel containing all four p38 MAPK isoforms, ERK1, ERK2 as well as other protein kinases close to p38α MAPK in the kinome phylogenetic tree (FIG. 4, Table 4). […] Its IC50 toward p38α MAPK was determined, showing a value in the micromolar range (IC50=3.0±0.1 μM).

p38d MAPK = p38d MAPK (Homo sapiens (Human), UniProt O15264); type: biochemical; settings: duplicate assays, read-out: mean % residual activity
Method: as §1, §2, §3

JNK3 = JNK3 (Homo sapiens (Human), UniProt P53779); type: biochemical; settings: duplicate assays, read-out: mean % residual activity
Method: as §1, §2, §3

p38b MAPK = p38b MAPK (Homo sapiens (Human), UniProt Q15759); type: biochemical; settings: duplicate assays, read-out: mean % residual activity
Method: as §1, §2, §3

ERK1 = ERK1 (Homo sapiens (Human), UniProt P27361); type: biochemical; settings: duplicate assays, read-out: mean % residual activity
Method: as §1, §2, §3

JNK2 = JNK2 (Homo sapiens (Human), UniProt P45984); type: biochemical; settings: duplicate assays, read-out: mean % residual activity
Method: as §1, §2, §3

ERK2 = ERK2 (Homo sapiens (Human), UniProt P28482); type: biochemical; settings: duplicate assays, read-out: mean % residual activity
Method: as §1, §2, §3

p38g MAPK = p38g MAPK (Homo sapiens (Human), UniProt P53778); type: biochemical; settings: duplicate assays, read-out: mean % residual activity
Method: as §1, §2, §3

CDK2-Cyclin A = CDK2-Cyclin A (Homo sapiens (Human), UniProt P24941); type: biochemical; settings: duplicate assays, read-out: mean % residual activity
Method: as §1, §2, §3

CDK5 = CDK5 (Homo sapiens (Human), UniProt Q00535); type: biochemical; settings: duplicate assays, read-out: mean % residual activity
Method: as §1, §2, §3

ERK5 = ERK5 (Homo sapiens (Human), UniProt Q13164); type: biochemical; settings: duplicate assays, read-out: mean % residual activity
Method: as §1, §2, §3

ROCK 2 = type: biochemical, human; settings: 10 μM, duplicate assays
Method: (§4) FIG. 3 illustrates the human kinome. Compound 69 was evaluated at the International Center For Kinase Profiling (ICKP, Dundee, Scotland) toward a panel of 50 protein kinases that provide a representative sampling of the human kinome. The results were expressed as the mean percentage of residual activity at 10 μM concentration (duplicate assays). Small disks: ≥65%, larger disk: 19%. The black square indicates the kinome region containing protein kinases evaluated in a second screening (FIG. 4, Table 4). The tree was generated using the Kinome Render software, and the illustration reproduced courtesy of Cell Signaling Technology, Inc. (www.cellsignal.com) Chartier et al PeerJ 2013, 1:e126.
as §2
(§5) Studies were undertaken to identify the possible biological target(s) of compound 69. The activation in neurons of PK such as PKCγ, ERK or p38 MAPK can contribute to pain hypersensitivity. Therefore, it was decided to screen compound 69 toward a panel of 50 PKs that provide a representative sampling of the human kinome (FIG. 3, Table 3) (Biochem. J. 2007, 408, 297-315). In this panel, p38α MAPK was identified as the privileged target, with 19% of kinase residual activity at 10 μM compound concentration.

AMPK (hum) = type: biochemical, human; settings: 10 μM, duplicate assays
Method: as §4, §2, §5

CK2 = type: biochemical, human; settings: 10 μM, duplicate assays
Method: as §4, §2, §5

Sequence of JNK2 (P45984 whole entry): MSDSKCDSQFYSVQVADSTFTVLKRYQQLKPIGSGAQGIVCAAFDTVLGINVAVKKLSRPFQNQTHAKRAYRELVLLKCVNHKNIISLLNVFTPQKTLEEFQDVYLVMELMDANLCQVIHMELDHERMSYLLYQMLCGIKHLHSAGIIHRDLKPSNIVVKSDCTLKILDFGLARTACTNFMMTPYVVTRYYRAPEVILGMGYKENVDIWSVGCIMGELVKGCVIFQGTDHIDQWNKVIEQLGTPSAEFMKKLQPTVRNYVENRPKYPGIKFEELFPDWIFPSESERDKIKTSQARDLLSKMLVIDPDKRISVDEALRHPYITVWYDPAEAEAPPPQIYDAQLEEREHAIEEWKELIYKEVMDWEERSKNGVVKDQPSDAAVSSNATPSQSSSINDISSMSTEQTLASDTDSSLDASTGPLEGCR
Sequence of p38g MAPK (P53778 whole entry): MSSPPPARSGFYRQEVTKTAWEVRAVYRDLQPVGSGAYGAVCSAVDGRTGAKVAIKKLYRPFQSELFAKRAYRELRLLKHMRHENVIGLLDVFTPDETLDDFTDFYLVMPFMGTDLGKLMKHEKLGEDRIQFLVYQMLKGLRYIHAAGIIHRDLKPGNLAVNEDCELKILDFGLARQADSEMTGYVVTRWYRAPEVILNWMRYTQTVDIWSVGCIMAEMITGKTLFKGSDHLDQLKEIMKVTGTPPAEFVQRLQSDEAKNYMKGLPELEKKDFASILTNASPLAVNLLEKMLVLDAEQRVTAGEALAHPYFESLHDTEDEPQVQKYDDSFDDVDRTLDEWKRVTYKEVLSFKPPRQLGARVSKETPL
Sequence of p38b MAPK (Q15759 whole entry): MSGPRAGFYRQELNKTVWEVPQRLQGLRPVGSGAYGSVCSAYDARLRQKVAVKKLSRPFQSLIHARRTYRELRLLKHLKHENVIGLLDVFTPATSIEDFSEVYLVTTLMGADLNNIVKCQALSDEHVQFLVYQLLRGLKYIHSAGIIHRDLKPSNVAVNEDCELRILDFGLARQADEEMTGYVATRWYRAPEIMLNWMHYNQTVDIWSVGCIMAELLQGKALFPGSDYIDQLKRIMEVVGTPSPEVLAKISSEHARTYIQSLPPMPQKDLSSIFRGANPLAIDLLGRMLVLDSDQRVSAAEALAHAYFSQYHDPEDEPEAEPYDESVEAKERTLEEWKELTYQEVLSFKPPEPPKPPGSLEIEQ
Sequence of ERK8 (Q8TD08 whole entry): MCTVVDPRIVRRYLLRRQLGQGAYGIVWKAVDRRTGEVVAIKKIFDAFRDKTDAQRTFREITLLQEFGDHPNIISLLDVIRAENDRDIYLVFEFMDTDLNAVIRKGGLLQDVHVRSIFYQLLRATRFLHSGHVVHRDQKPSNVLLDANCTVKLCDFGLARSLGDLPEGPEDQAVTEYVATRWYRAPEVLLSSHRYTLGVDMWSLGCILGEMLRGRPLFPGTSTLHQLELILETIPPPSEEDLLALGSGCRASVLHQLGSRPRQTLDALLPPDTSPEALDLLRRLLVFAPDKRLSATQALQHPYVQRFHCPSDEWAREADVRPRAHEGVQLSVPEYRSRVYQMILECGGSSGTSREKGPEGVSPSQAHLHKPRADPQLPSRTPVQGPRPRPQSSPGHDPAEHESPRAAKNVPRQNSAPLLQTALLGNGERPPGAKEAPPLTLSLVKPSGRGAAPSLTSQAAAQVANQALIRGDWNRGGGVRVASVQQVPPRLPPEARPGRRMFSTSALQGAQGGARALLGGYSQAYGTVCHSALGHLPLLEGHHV
Sequence of p38d MAPK (O15264 whole entry): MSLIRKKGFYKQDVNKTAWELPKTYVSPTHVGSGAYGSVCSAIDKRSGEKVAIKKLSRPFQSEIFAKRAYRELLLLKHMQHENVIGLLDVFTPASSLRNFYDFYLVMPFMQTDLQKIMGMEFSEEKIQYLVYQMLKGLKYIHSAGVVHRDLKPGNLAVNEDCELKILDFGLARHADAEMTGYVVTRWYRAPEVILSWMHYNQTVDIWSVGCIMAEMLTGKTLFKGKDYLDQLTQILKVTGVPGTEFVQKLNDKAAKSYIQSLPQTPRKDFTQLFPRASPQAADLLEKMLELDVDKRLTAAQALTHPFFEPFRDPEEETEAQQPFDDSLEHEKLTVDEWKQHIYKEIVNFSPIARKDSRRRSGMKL
Sequence of JNK3 (P53779 whole entry): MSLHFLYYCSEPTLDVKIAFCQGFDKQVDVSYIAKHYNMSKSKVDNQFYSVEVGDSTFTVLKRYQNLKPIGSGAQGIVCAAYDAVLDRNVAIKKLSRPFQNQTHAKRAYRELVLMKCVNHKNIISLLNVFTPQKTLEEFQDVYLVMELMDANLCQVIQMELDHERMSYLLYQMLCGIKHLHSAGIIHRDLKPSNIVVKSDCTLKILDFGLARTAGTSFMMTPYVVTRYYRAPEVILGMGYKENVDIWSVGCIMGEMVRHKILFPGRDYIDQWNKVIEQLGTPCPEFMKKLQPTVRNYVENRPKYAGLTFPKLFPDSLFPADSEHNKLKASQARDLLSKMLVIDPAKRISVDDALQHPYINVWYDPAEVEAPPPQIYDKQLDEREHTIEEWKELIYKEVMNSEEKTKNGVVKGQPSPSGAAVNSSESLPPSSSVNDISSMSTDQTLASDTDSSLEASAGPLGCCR
Sequence of ERK1 (P27361 whole entry): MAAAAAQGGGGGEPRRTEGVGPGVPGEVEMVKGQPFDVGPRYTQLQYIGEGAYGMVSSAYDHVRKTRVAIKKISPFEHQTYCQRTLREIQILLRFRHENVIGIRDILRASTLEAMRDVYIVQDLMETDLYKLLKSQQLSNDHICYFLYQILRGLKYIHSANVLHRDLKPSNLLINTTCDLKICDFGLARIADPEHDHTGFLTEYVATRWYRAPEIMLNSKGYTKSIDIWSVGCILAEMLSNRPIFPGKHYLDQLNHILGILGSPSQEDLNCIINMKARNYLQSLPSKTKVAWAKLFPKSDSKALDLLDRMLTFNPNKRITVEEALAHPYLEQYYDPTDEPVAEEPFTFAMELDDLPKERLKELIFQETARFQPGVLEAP
Sequence of CDK5 (Q00535 whole entry): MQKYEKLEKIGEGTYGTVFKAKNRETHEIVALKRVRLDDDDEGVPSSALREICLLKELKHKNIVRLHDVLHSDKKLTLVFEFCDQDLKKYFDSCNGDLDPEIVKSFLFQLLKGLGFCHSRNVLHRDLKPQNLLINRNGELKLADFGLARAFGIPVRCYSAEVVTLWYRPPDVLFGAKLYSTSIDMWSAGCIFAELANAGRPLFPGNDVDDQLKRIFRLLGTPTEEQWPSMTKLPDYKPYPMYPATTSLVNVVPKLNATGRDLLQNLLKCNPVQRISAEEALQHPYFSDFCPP
Sequence of CDK5 (Q15078 whole entry partner): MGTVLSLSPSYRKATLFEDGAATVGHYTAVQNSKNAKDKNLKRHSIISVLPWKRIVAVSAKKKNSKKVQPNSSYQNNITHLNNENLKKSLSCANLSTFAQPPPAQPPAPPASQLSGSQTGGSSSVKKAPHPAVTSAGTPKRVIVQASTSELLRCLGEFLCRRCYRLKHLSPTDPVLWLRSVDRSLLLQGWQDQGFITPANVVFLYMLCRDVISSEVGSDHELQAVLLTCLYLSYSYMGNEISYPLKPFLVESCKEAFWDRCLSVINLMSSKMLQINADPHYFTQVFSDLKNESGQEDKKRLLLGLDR
Sequence of ERK2 (P28482 whole entry): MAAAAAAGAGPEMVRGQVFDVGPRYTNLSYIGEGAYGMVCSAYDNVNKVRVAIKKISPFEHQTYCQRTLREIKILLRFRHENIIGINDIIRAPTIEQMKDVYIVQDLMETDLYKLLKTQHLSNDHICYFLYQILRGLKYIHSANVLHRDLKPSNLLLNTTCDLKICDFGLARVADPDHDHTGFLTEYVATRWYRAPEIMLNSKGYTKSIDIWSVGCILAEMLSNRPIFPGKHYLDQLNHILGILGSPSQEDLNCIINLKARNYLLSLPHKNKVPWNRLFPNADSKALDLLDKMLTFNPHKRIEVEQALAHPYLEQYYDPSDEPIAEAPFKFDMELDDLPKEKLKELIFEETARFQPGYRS
Sequence of ERK5 (Q13164 whole entry): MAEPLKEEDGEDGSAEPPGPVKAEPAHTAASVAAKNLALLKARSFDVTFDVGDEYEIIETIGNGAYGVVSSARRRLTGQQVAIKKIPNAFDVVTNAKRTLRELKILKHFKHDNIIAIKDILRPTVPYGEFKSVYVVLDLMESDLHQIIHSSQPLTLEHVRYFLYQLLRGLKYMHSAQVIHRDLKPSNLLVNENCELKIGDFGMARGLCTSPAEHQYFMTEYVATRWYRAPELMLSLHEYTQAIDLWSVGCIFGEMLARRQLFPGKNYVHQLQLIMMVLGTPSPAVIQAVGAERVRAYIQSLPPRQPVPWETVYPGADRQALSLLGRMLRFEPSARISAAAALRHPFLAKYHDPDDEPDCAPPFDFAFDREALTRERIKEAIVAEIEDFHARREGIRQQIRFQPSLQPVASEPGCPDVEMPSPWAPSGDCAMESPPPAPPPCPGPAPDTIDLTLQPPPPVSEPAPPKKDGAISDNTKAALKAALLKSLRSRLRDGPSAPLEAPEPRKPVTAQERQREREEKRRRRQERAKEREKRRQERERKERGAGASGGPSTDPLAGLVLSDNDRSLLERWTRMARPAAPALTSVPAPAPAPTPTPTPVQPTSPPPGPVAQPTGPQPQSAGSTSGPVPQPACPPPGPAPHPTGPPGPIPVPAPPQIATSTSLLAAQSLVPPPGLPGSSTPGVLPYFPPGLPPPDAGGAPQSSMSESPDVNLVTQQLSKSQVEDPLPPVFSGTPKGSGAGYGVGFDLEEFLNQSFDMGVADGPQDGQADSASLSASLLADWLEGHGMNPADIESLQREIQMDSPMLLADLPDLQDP

SMILES: O=c1[nH]cc(Nc2ccccc2)cc1-c1ccccc1Br [Compound 69, 3-(2-Bromophenyl)-5-(phenylamino)pyridin-2(1H)-one]
- remaining activity at 1 µM (ERK8): 144%
- remaining activity at 1 µM (p38d MAPK): 112%
- remaining activity at 1 µM (JNK3): 115%
- remaining activity at 1 µM (p38b MAPK): 116%
- remaining activity at 1 µM (ERK1): 120%
- remaining activity at 1 µM (JNK2): 103%
- remaining activity at 1 µM (ERK2): 109%
- remaining activity at 1 µM (p38g MAPK): 103%
- remaining activity at 1 µM (CDK2-Cyclin A): 119%
- remaining activity at 1 µM (CDK5): 103%
- remaining activity at 1 µM (ERK5): 101%
- mean % residual activity (ROCK 2): 105%
- mean % residual activity (AMPK (hum)): 95%
- mean % residual activity (CK2): 94%
